Reference: patent publication US9750481B2, “System and method for analyzing antegrade and retrograde blood flow” (Indiana University Research and Technology Corporation, priority 2014, dated 2017)
Entries after “also recorded” stand apart in the source; their conditions may differ.

What was measured:
[1] = tested on: superficial femoral artery (SFA); assay: Shear rates in the SFA by Doppler ultrasound during 3 hours of sitting with oral Vitamin C (VIT trial); format: in vivo, human; details: Mean ± SD
Description: Two screening visits and two sitting trials in random sequence, one with uninterrupted sitting (SIT) and one with oral Vitamin C during the sitting time (VIT) were conducted. Specifically, SIT represents prolonged 3 hours of sitting. VIT represents prolonged sitting with intermittent vitamin C. Flow mediated dilation (FMD) was measured at 0, 1, 2 and 3 hours. Subjects ingested 1 g vitamin C at 30 minutes and 500 mg at 1 hour 30 minutes. Subjects arrived at the laboratory after an overnight fast of at least 6 hours between 7:00 AM and 9:00 AM. The arrival time was matched for both trials within each subject. Subjects were also asked to refrain from any caffeinated drink for at least 8 hours before reporting to the lab. Upon their arrival in the lab, all subjects self-reported adhering to the fasting schedule. During both trials, the subjects remained seated for 3 hours without moving their legs or feet. Subjects were allowed to move their arms, not vigorously, for example to use a computer or do light reading during the non-testing periods of the trials. Arm movement was not quantified. The flow mediated dilation (FMD) and other vascular function parameters were measured at baseline, 1 hour, 2 hours and 3 hours into testing. The two trials were performed in random order, separated by a minimum of two and a maximum of seven days. The SIT trial was uninterrupted sitting for 3 hours, whereas in the VIT trial, subjects ingested two Vitamin C tablets; 1 g at 30 minutes and 500 mg at 1 hour 30 minutes during the sitting interval. In addition to imaging the arterial dimensions, Doppler ultrasound was used to concurrently measure SFA blood velocity. Doppler flow signals were corrected at an insonation angle of 60°, and the sample volume was placed in the middle of the artery. Diameter images and Doppler measurements of blood velocity were continuously recorded for 45 seconds at baseline prior to cuff inflation. The automatic blood pressure cuff was then rapidly inflated to 250 mmHg and maintained for 5 minutes until cuff deflation. Diameter and blood velocity recordings resumed prior to cuff deflation and continued for 5 minutes after deflation. Ultrasound images were continuously recorded at 5 frames•s^-1 with […] (TechSmith, Okemos, Mich., USA), and stored as .avi files. This procedure was repeated hourly across the sitting intervals. Off-line analysis of diameters was performed using automated edge-detection software (Brachial Analyzer, Medical Imaging Applications LLC, Coralville, IA, USA). This software allows the technician to determine a region of interest where the near and far vessel walls are most clear. The vessel wall borders are then detected using an optimal graph search-based segmentation that uses a combination of pixel density and image gradient as an objective function. All analyzed images were reviewed by the technician and edited when needed to ensure that diameter measurements were always determined from the intima-lumen interface at the near and far vessel wall. Blood velocities were determined using the systems and methods described herein after automated selection of the blood flow envelop throughout the measurement. The velocity-time integral was used to calculate the mean blood velocity for each cardiac cycle. Diameters and blood velocities were not ECG-gated. The peak dilation after cuff deflation was determined using the highest 3-s moving average and was presented as a percentage change from baseline diameter (FMD %). SFA shear rate was used as an estimate of arterial shear stress and was calculated for each FMD % at baseline and during the post occlusion period using the following formula: 4•Vm•D-1 where Vm is mean blood velocity (cm• s-1) and D is mean arterial diameter (cm). All measurements and analysis were performed by a single researcher (ST) who was blinded to the participant identity and treatment condition for each image file.

SFA endothelial function = assay: Superficial femoral artery flow mediated dilation (SFA FMD) during 3 hours of sitting, SIT vs VIT trial; format: in vivo, human; details: oral Vitamin C 1 g at 30 minutes and 500 mg at 1 hour 30 minutes, different at 1 hour (p=0.009), 2 hours (p=0.016), 3 hours (p=0.004)
Description: Two screening visits and two sitting trials in random sequence, one with uninterrupted sitting (SIT) and one with oral Vitamin C during the sitting time (VIT) were conducted. Specifically, SIT represents prolonged 3 hours of sitting. VIT represents prolonged sitting with intermittent vitamin C. Flow mediated dilation (FMD) was measured at 0, 1, 2 and 3 hours. Subjects ingested 1 g vitamin C at 30 minutes and 500 mg at 1 hour 30 minutes. Subjects arrived at the laboratory after an overnight fast of at least 6 hours between 7:00 AM and 9:00 AM. The arrival time was matched for both trials within each subject. […] Subjects were allowed to move their arms, not vigorously, for example to use a computer or do light reading during the non-testing periods of the trials. Arm movement was not quantified. The flow mediated dilation (FMD) and other vascular function parameters were measured at baseline, 1 hour, 2 hours and 3 hours into testing. […] Endothelial function was measured using SFA FMD, measured in accordance with current guidelines. […] Diameter images and Doppler measurements of blood velocity were continuously recorded for 45 seconds at baseline prior to cuff inflation. […] Ultrasound images were continuously recorded at 5 frames•s^-1 with […] […] Blood velocities were determined using the systems and methods described herein after automated selection of the blood flow envelop throughout the measurement. […]

[2] = 1 hr, oral Vitamin C 1 g at 30 minutes
[3] = 2 hr, oral Vitamin C 1 g at 30 minutes and 500 mg at 1 hour 30 minutes
[4] = 3 hr, oral Vitamin C 1 g at 30 minutes and 500 mg at 1 hour 30 minutes
[5] = Baseline (0 hr), before Vitamin C ingestion, male subjects, sitting

O=C1O[C@H]([C@@H](O)CO)C(O)=C1O [Vitamin C]
Antegrade shear rate in the SFA [1, 2]: 8.58 ± 6.91 s⁻¹
Mean shear rate in the SFA [1, 2]: 4.44 ± 4.23 s⁻¹
Antegrade shear rate in the SFA [1, 3]: 6.56 ± 3.08 s⁻¹
Mean shear rate in the SFA [1, 3]: 2.99 ± 2.6 s⁻¹
Antegrade shear rate in the SFA [1, 4]: 6.22 ± 2.39 s⁻¹
Mean shear rate in the SFA [1, 4]: 3.17 ± 2.14 s⁻¹
Antegrade shear rate in the SFA [1, 5]: 7.03 ± 3.5 s⁻¹
Mean shear rate in the SFA [1, 5]: 5.17 ± 7.54 s⁻¹
Effect on decline of SFA FMD % during sitting (SFA endothelial function): prevented the decline in SFA FMD; also recorded: prevented the decline in endothelial function
Effect on decline of SFA FMD % during sitting (SFA endothelial function; listed as VIT): preventing the decline of FMD
